Experimental data as given in patent US8664216B2, “Spiro-5,6-dihydro-4H-2,3,5,10b-tetraaza-benzo[e]azulenes” (Hoffmann-La Roche Inc., priority 2008, dated 2014).
Counter-ions that a name gives are not always drawn. Like-named read-outs stand apart in the source and are kept apart here.

Molecular target: T1, human V1a receptor (Homo sapiens, UniProt P37288)
T1 construct: expressed in transfected cells; host or cells: HEK293 cells, transiently transfected; membranes prepared
Assay: human V1a receptor binding studies (3H-Vasopressin SPA, membranes of transfected HEK293 cells)
Description: The human V1a receptor was cloned by RT-PCR from total human liver RNA. The coding sequence was subcloned in an expression vector after sequencing to confirm the identity of the amplified sequence. […] Cell membranes were prepared from HEK293 cells transiently transfected with the expression vector and grown in 20 liter fermenters with the following protocol.
50 g of cells are resuspended in 30 ml freshly prepared ice cold Lysis buffer (50 mM HEPES, 1 mM EDTA, 10 mM MgCl2 adjusted to pH=7.4+complete cocktail of protease inhibitor (Roche Diagnostics)). Homogenized with Polytron for 1 min and sonicated on ice for 2×2 minutes at 80% intensity (Vibracell sonicator). The preparation is centrifuged 20 min at 500 g at 4° C., the pellet is discarded and the supernatant centrifuged 1 hour at 43,000 g at 4° C. (19,000 rpm). The pellet is resuspended in 12.5 ml Lysis buffer+12.5 ml Sucrose 20% and homogenized using a Polytron for 1-2 min. The protein concentration is determined by the Bradford method and aliquots are stored at −80° C. until use. For binding studies 60 mg Yttrium silicate SPA beads (Amersham) are mixed with an aliquot of membrane in binding buffer (50 mM Tris, 120 mM NaCl, 5 mM KCl, 2 mM CaCl2, 10 mM MgCl2) for 15 minutes with mixing. 50 μl of bead/membrane mixture is then added to each well of a 96 well plate, followed by 50 μl of 4 nM 3H-Vasopressin (American Radiolabeled Chemicals). For total binding measurement 100 μl of binding buffer are added to the respective wells, for non-specific binding 100 μl of […] cold vasopressin and for compound testing 100 μl of a serial dilution of each compound in 2% DMSO. The plate is incubated 1 h at room temperature, centrifuged 1 min at 1000 g and counted on a Packard Top-Count. Non-specific binding counts are subtracted from each well and data is normalized to the maximum specific binding set at 100%. To calculate an IC 50 the curve is fitted using a non-linear regression model (XLfit) and the Ki is calculated using the Cheng-Prussoff equation.

[1] = 3H-Vasopressin displacement, HEK293 cell membranes, Ki calculated from IC50 by Cheng-Prussoff equation, read-out: pKi hV1a (converted)

T1 sequence (P37288 whole entry): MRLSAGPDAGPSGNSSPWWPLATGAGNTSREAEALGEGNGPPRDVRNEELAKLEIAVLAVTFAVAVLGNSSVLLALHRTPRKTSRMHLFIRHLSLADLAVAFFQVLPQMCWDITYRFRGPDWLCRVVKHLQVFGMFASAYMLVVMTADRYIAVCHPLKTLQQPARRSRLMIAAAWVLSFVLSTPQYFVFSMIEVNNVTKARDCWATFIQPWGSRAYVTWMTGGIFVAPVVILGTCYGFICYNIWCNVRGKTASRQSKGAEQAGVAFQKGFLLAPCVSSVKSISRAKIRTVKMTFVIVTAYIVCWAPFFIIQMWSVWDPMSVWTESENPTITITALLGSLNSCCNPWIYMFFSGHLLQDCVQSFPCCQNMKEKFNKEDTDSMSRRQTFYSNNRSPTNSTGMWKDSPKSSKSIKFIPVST

SMILES | Ki | Ki [1]
Clc1ccc2c(c1)CNCc1nnc([C@H]3CC[C@@]4(CC3)OCc3ccccc34)n1-2 [Example 2, 8-Chloro-1-[(1r,4′r)-3H-spiro[2-benzofuran-1,1′-cyclohexan]-4′-yl]-5,6-dihydro-4H-[1,2,4]triazolo[4,3-a][1,4]benzodiazepine hydrochloride] | 39.8 nM | 
CN1Cc2cc(Cl)ccc2-n2c(nnc2N2CCC3(CC2)OCCc2ccccc23)C1 [Example 35, 1′-(8-Chloro-5-methyl-5,6-dihydro-4H-[1,2,4]triazolo[4,3-a][1,4]benzodiazepin-1-yl)-3,4-dihydrospiro[isochromene-1,4′-piperidine]] | 10.5 nM | 
CC1OC2(CCN(c3nnc4n3-c3ccc(Cl)cc3CN(C)C4)CC2)c2ccccc21 (racemic) [Example 26, (RS)-8-Chloro-5-methyl-1-(3-methyl-1′H,3H-spiro[2-benzofuran-1,4′-piperidin]-1′-yl)-5,6-dihydro-4H-[1,2,4]triazolo[4,3-a][1,4]benzodiazepine] |  | 4.79 nM
Clc1ccc2c(c1)CN(Cc1ccccn1)Cc1nnc(N3CCC4(CC3)OCc3ccccc34)n1-2 [Example 12, 8-Chloro-5-(pyridin-2-ylmethyl)-1-(1′H,3H-spiro[2-benzofuran-1,4′-piperidin]-1′-yl)-5,6-dihydro-4H-[1,2,4]triazolo[4,3-a][1,4]benzodiazepine] | 1.82 nM | 
CC1OC2(CCN(c3nnc4n3-c3ccc(Cl)cc3CN(C(=O)OC(C)(C)C)C4)CC2)c2ccccc21 (racemic) [Example 24, (RS)-tert-Butyl 8-chloro-1-(3-methyl-1′H,3H-spiro[2-benzofuran-1,4′-piperidin]-1′-yl)-4H-[1,2,4]triazolo[4,3-a][1,4]benzodiazepine-5(6H)-carboxylate] |  | 10.7 nM
CC(C)(C)OC(=O)N1Cc2cc(Cl)ccc2-n2c(nnc2N2CCC3(CC2)OCc2ccc(F)cc23)C1 [Example 17, tert-Butyl 8-chloro-1-(6-fluoro-1′H,3H-spiro[2-benzofuran-1,4′-piperidin]-1′-yl)-4H-[1,2,4]triazolo[4,3-a][1,4]benzodiazepine-5(6H)-carboxylate] |  | 10.2 nM
CN1Cc2cc(Cl)ccc2-n2c(nnc2N2CCC3(CC2)OCc2cc(F)ccc23)C1 [Example 23, 8-Chloro-1-(5-fluoro-1′H,3H-spiro[2-benzofuran-1,4′-piperidin]-1′-yl)-5-methyl-5,6-dihydro-4H-[1,2,4]triazolo[4,3-a][1,4]benzodiazepine] |  | 2.09 nM
CN1Cc2cc(Cl)ccc2-n2c(nnc2N2CCC3(CC2)OCc2cccc(F)c23)C1 [Example 22, 8-Chloro-1-(7-fluoro-1′H,3H-spiro[2-benzofuran-1,4′-piperidin]-1′-yl)-5-methyl-5,6-dihydro-4H-[1,2,4]triazolo[4,3-a][1,4]benzodiazepine] |  | 3.98 nM
CN1Cc2cc(Cl)ccc2-n2c(nnc2N2CCC3(CC2)SCc2ccccc23)C1 [Example 29] | 1.74 nM | 
CN1Cc2cc(Cl)ccc2-n2c(nnc2N2CCC3(CC2)c2ccccc2CS3(=O)=O)C1 [Example 31, 8-Chloro-1-(2,2-dioxido-1′H,3H-spiro[2-benzothiophene-1,4′-piperidin]-1′-yl)-5-methyl-5,6-dihydro-4H-[1,2,4]triazolo[4,3-a][1,4]benzodiazepine] | 47.9 nM | 
Clc1ccc2c(c1)CNCc1nnc([C@H]3CC[C@]4(CC3)OCc3ccccc34)n1-2 [Example 5, 8-Chloro-1-[(1s,4′s)-3H-spiro[2-benzofuran-1,1′-cyclohexan]-4′-yl]-5,6-dihydro-4H-[1,2,4]triazolo[4,3-a][1,4]benzodiazepine hydrochloride] | 16.2 nM | 
CC(C)(C)OC(=O)N1Cc2cc(Cl)ccc2-n2c(nnc2[C@H]2CC[C@@]3(CC2)OCc2ccccc23)C1 [Example 1, tert-Butyl 8-chloro-1-[(1r,4′r)-3H-spiro[2-benzofuran-1,1′-cyclohexan]-4′-yl]-4H-[1,2,4]triazolo[4,3-a][1,4]benzodiazepine-5(6H)-carboxylate] | 4.57 nM | 
CN(C)CC(=O)N1Cc2cc(Cl)ccc2-n2c(nnc2N2CCC3(CC2)OCc2ccccc23)C1 [Example 16, 2-[8-Chloro-1-(1′H,3H-spiro[2-benzofuran-1,4′-piperidin]-1′-yl)-4H-[1,2,4]triazolo[4,3-a][1,4]benzodiazepin-5(6H)-yl]-N,N-dimethyl-2-oxoethanamine] |  | 6.76 nM
CC(C)N1Cc2cc(Cl)ccc2-n2c(nnc2N2CCC3(CC2)OCc2ccccc23)C1 [Example 10, 8-Chloro-5-isopropyl-1-(1′H,3H-spiro[2-benzofuran-1,4′-piperidin]-1′-yl)-5,6-dihydro-4H-[1,2,4]triazolo[4,3-a][1,4]benzodiazepine] |  | 1.82 nM
CN1Cc2cc(Cl)ccc2-n2c(nnc2[C@H]2CC[C@@]3(CC2)OCc2ccccc23)C1 [Example 3, 8-Chloro-5-methyl-1-[(1r,4′r)-3H-spiro[2-benzofuran-1,1′-cyclohexan]-4′-yl]-5,6-dihydro-4H-[1,2,4]triazolo[4,3-a][1,4]benzodiazepine] | 2.82 nM | 
CN1Cc2cc(Cl)ccc2-n2c(nnc2N2CCC3(CC2)COCc2ccccc23)C1 [Example 32, 1′-(8-Chloro-5-methyl-5,6-dihydro-4H-[1,2,4]triazolo[4,3-a][1,4]benzodiazepin-1-yl)-1H-spiro[isochromene-4,4′-piperidine]] | 2.19 nM | 
CN1Cc2cc(Cl)ccc2-n2c(nnc2N2CCC3(CC2)OC(=O)c2ccccc23)C1 [Example 27, 1′-(8-Chloro-5-methyl-5,6-dihydro-4H-[1,2,4]triazolo[4,3-a][1,4]benzodiazepin-1-yl)-3H-spiro[2-benzofuran-1,4′-piperidin]-3-one] | 12.3 nM | 
CN1Cc2cc(Cl)ccc2-n2c(nnc2N2CCC[C@@]3(CC2)OCc2ccccc23)C1 [Example 36, (+)-1-(8-Chloro-5-methyl-5,6-dihydro-4H-[1,2,4]triazolo[4,3-a][1,4]benzodiazepin-1-yl)-3′H-spiro[azepane-4,1′-[2]benzofuran]] |  | 1.45 nM
CN1Cc2cc(Cl)ccc2-n2c(nnc2N2CCC[C@]3(CC2)OCc2ccccc23)C1 [Example 37, (−)-1-(8-Chloro-5-methyl-5,6-dihydro-4H-[1,2,4]triazolo[4,3-a][1,4]benzodiazepin-1-yl)-3′H-spiro[azepane-4,1′-[2]benzofuran]] |  | 5.01 nM
CC(C)(C)OC(=O)N1Cc2cc(Cl)ccc2-n2c(nnc2N2CCC3(CC2)OCc2ccccc23)C1 [Example 7, tert-Butyl 8-chloro-1-(1′H,3H-spiro[2-benzofuran-1,4′-piperidin]-1′-yl)-4H-[1,2,4]triazolo[4,3-a][1,4]benzodiazepine-5(6H)-carboxylate] |  | 4.47 nM
CN1Cc2cc(Cl)ccc2-n2c(nnc2N2CCC3(CC2)OCc2ccccc23)C1 [Example 9, 8-Chloro-5-methyl-1-(1′H,3H-spiro[2-benzofuran-1,4′-piperidin]-1′-yl)-5,6-dihydro-4H-[1,2,4]triazolo[4,3-a][1,4]benzodiazepine] | 2.4 nM | 
CN1Cc2cc(Cl)ccc2-n2c(nnc2N2CCC3(CC2)OCc2ccc(F)cc23)C1 [Example 19, 8-Chloro-1-(6-fluoro-1′H,3H-spiro[2-benzofuran-1,4′-piperidin]-1′-yl)-5-methyl-5,6-dihydro-4H-[1,2,4]triazolo[4,3-a][1,4]benzodiazepine] |  | 7.59 nM
CC(=O)N1Cc2cc(Cl)ccc2-n2c(nnc2N2CCC3(CC2)OCc2ccccc23)C1 [Example 15] |  | 4.17 nM
